# Laboratory results from PubChem BioAssay AID2060601 (Molecular Pharmacology Branch, DTP, NCI, 2025).
# pIC50: −log10 of the molar value.
# Test system: 874868-142-R-J2-PDC complex spheroids, growth % test/control
# Experiment: Anticancer human tumor 874868-142-R-J2-PDC patient-derived head and neck squamous carcinoma cell line growth inhibition [CLK]
# Conditions: for pIC50: curve of first compound; for viability, T/C: stronger effect = lower value
# Procedure, shortened: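 Patient-derived tumor cells grown as complex spheroids with HUVEC endothelial cells and mesenchymal stem cells, treated with drug combinations. Concentrations descend in half-log steps from near clinical Cmax, or from 10 microM if Cmax unknown.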
# 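Note: spheroids exposed to the compounds for 7 days.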
# 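Throughout, for viability, T/C: 100% = DMSO vehicle control viability.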
smiles,measurement,setting,value
Cn1ncnc1[C@H]1c2n[nH]c(=O)c3cc(F)cc(c23)N[C@@H]1c1ccc(F)cc1 + CN1CCN(c2cc(C(=O)Nc3cc4cc(-c5cnn(C)c5)ccc4cn3)ccn2)CC1,pIC50,second compound 0.0316 µM,< 7.00
same,pIC50,second compound 0.1 µM,7.04
same,pIC50,second compound 0.316 µM,> 9.50
same,pIC50,second compound 1 µM,> 9.50
same,pIC50,second compound 3.16 µM,> 9.50
same,pIC50,second compound 10 µM,> 9.50
same,"viability, T/C","second compound 0.0316 µM, first compound 0.000316 µM",99.4%
same,"viability, T/C","second compound 0.0316 µM, first compound 0.001 µM",83.8%
same,"viability, T/C","second compound 0.0316 µM, first compound 0.00316 µM",80%
same,"viability, T/C","second compound 0.0316 µM, first compound 0.01 µM",89.2%
same,"viability, T/C","second compound 0.0316 µM, first compound 0.0316 µM",62.2%
same,"viability, T/C","second compound 0.0316 µM, first compound 0.1 µM",68.2%
same,"viability, T/C","second compound 0.1 µM, first compound 0.000316 µM",83.9%
same,"viability, T/C","second compound 0.1 µM, first compound 0.001 µM",70.3%
same,"viability, T/C","second compound 0.1 µM, first compound 0.00316 µM",69.8%
same,"viability, T/C","second compound 0.1 µM, first compound 0.01 µM",66.6%
same,"viability, T/C","second compound 0.1 µM, first compound 0.0316 µM",43.8%
same,"viability, T/C","second compound 0.1 µM, first compound 0.1 µM",53.8%
same,"viability, T/C","second compound 0.316 µM, first compound 0.000316 µM",17.1%
same,"viability, T/C","second compound 0.316 µM, first compound 0.001 µM",17.7%
same,"viability, T/C","second compound 0.316 µM, first compound 0.00316 µM",16.2%
same,"viability, T/C","second compound 0.316 µM, first compound 0.01 µM",11.9%
same,"viability, T/C","second compound 0.316 µM, first compound 0.0316 µM",18.8%
same,"viability, T/C","second compound 0.316 µM, first compound 0.1 µM",15.2%
same,"viability, T/C","second compound 1 µM, first compound 0.000316 µM",0.34%
same,"viability, T/C","second compound 1 µM, first compound 0.001 µM",0.36%
same,"viability, T/C","second compound 1 µM, first compound 0.00316 µM",0.3%
same,"viability, T/C","second compound 1 µM, first compound 0.01 µM",0.19%
same,"viability, T/C","second compound 1 µM, first compound 0.0316 µM",0.26%
same,"viability, T/C","second compound 1 µM, first compound 0.1 µM",0.38%
same,"viability, T/C","second compound 3.16 µM, first compound 0.000316 µM",0.15%
same,"viability, T/C","second compound 3.16 µM, first compound 0.001 µM",0.17%
same,"viability, T/C","second compound 3.16 µM, first compound 0.00316 µM",0.15%
same,"viability, T/C","second compound 3.16 µM, first compound 0.01 µM",0.18%
same,"viability, T/C","second compound 3.16 µM, first compound 0.0316 µM",0.12%
same,"viability, T/C","second compound 3.16 µM, first compound 0.1 µM",0.29%
same,"viability, T/C","second compound 10 µM, first compound 0.000316 µM",0.11%
same,"viability, T/C","second compound 10 µM, first compound 0.001 µM",0.2%
same,"viability, T/C","second compound 10 µM, first compound 0.00316 µM",0.16%
same,"viability, T/C","second compound 10 µM, first compound 0.01 µM",0.18%
same,"viability, T/C","second compound 10 µM, first compound 0.0316 µM",0.2%
same,"viability, T/C","second compound 10 µM, first compound 0.1 µM",0.2%
